Active and inactive are the calls of the source. No cut-off for these calls is given here.
Columns and labels:
[1] = target: 5-hydroxytryptamine receptor 2B (Rattus norvegicus) (UniProt P30994); assay: Non-surmountable antagonist activity at 5-HT2B in Rattus norvegicus CD (rat) stomach fundus sections assessed as inhibition of serotonin-induced contractile response after 1 hr
[2] = target: T1, 5-hydroxytryptamine receptor 2C (Rattus norvegicus) (UniProt P08909); assay: Displacement of [3H]mesulergine from 5-HT2C in Rattus norvegicus CD (rat) […] sections at 10 uM after 1 hr
T1 sequence (whole entry): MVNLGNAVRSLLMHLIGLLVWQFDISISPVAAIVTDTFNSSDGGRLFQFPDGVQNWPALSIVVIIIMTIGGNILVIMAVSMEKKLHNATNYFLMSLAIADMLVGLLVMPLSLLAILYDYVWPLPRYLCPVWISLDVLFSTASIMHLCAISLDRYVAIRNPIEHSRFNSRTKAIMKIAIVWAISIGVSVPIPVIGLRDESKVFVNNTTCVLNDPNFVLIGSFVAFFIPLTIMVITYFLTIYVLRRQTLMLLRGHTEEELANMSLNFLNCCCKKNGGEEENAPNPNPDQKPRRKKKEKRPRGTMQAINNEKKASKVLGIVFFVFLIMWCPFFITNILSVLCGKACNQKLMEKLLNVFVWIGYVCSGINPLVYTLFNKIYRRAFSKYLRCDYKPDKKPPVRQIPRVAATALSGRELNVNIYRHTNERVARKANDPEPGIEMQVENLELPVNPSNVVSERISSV

[3] = target: 5-hydroxytryptamine receptor 2A (Rattus norvegicus) (UniProt P14842); assay: Displacement of [3H]ketansarin from 5-HT2A in Rattus norvegicus CD (rat) […] sections at 10 uM after 1 hr
Sequence of 5-hydroxytryptamine receptor 2A (Rattus norvegicus) (P14842 whole entry): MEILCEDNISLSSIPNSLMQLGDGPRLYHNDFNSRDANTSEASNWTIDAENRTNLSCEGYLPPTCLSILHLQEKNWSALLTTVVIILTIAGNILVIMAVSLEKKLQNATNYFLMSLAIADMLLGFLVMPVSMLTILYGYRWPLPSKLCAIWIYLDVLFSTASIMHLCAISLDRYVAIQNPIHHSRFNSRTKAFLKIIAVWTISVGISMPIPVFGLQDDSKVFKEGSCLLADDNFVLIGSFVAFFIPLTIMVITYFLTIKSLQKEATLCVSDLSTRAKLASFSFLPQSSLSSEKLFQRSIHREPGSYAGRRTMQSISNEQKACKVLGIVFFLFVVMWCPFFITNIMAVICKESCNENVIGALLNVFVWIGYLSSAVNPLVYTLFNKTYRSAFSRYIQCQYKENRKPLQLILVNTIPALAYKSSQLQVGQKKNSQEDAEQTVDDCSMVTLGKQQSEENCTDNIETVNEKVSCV

[4] = target: 5-hydroxytryptamine receptor 2B (Rattus norvegicus) (UniProt P30994); assay: Binding affinity to 5-HT2B in Rattus norvegicus CD (rat) stomach fundus sections after 1 hr
[5] = target: 5-hydroxytryptamine receptor 2B (Rattus norvegicus) (UniProt P30994); assay: Antagonist activity at 5-HT2B in Rattus norvegicus CD (rat) stomach fundus sections assessed as inhibition of serotonin-induced contractile response at 10 '-5 M after 1 hr

Sequence of 5-hydroxytryptamine receptor 2B (Rattus norvegicus) (P30994 whole entry): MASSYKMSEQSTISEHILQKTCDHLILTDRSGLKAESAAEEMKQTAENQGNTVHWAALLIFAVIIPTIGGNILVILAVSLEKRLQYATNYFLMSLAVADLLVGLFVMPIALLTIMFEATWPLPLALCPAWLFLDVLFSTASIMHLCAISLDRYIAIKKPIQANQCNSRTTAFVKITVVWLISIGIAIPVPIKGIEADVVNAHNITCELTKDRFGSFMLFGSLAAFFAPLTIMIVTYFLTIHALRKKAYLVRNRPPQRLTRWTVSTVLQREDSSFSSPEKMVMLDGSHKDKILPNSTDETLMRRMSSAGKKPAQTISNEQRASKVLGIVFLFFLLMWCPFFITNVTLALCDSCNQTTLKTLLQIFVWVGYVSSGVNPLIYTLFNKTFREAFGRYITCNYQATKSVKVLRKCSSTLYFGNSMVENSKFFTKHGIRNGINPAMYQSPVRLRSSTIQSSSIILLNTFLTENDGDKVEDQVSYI

inhibition [1] | Activity [2] [%] | Activity [3] [%] | pKb [4] | inhibition [5] | SMILES
inactive | < 5 | < 5 | < 5 | – | OC(Cc1ccccc1)c1cc2ccccc2[nH]1 (configuration not stated)
inactive | < 5 | < 5 | < 5 | inactive | OC(Cc1ccccc1)c1nc2ccccc2o1 (configuration not stated)
inactive | < 5 | < 5 | < 5 | – | O/N=C(\Cc1ccccc1)c1cc2ccccc2[nH]1
inactive | < 5 | < 5 | < 5 | inactive | NCc1nc2ccccc2[nH]1
inactive | < 5 | < 5 | 5.29 | – | c1ccc(CCc2nc3ccccc3[nH]2)cc1
inactive | < 5 | < 5 | 5.15 | – | c1ccc(CCc2nc3ccccc3s2)cc1
inactive | < 5 | < 5 | 5.23 | – | c1ccc(CCc2nc3ccccc3o2)cc1
– | – | – | 9.17 | – | COc1ccc(CC2NCCc3c2[nH]c2ccccc32)cc1OC (configuration not stated)
inactive | < 5 | < 5 | 5.61 | – | COc1ccc(CCc2nc3ccccc3s2)cc1OC
inactive | < 5 | < 5 | < 5 | inactive | CCNCc1nc2ccccc2[nH]1
inactive | < 5 | < 5 | 5.16 | – | OC(Cc1ccccc1)c1nc2ccccc2[nH]1 (configuration not stated)
inactive | < 5 | < 5 | 5.16 | – | COc1ccc(CC(O)c2nc3ccccc3s2)cc1OC (configuration not stated)
inactive | < 5 | < 5 | 5.84 | – | COc1ccc(CCc2nc3ccccc3[nH]2)cc1OC
– | – | – | 7.74 | – | COC(=O)[C@@H]1[C@H]2C[C@H]3c4[nH]c5ccccc5c4CCN3C[C@@H]2CC[C@@H]1O
inactive | < 5 | < 5 | 5.25 | – | OC(Cc1ccccc1)c1nc2ccccc2s1 (configuration not stated)
inactive | < 5 | < 5 | 5.59 | – | COc1ccc(CCc2nc3ccccc3o2)cc1OC
inactive | < 5 | < 5 | < 5 | inactive | COc1ccc(CC(O)c2nc3ccccc3[nH]2)cc1OC (configuration not stated)
inactive | < 5 | < 5 | 5.1 | – | COc1ccc(CC(O)c2nc3ccccc3o2)cc1OC (configuration not stated)
inactive | < 5 | < 5 | 5.58 | – | O=C(Cc1ccccc1)c1cc2ccccc2[nH]1

SMILES | inhibition [1] | Activity [2] [%] | Activity [3] [%] | pKb [4] | inhibition [5]
CCNC(Cc1ccccc1)c1nc2ccccc2[nH]1 (configuration not stated) | inactive | < 5 | < 5 | 5.84 | –
NC(Cc1ccccc1)c1nc2ccccc2[nH]1 (configuration not stated) | inactive | < 5 | < 5 | < 5 | inactive
NC(Cc1ccccc1)c1cc2ccccc2[nH]1 (configuration not stated) | inactive | < 5 | < 5 | < 5 | –
NC(Cc1ccccc1)c1nc2ccccc2s1 (configuration not stated) | inactive | < 5 | < 5 | < 5 | inactive

Source: ChEMBL document CHEMBL3045258, “Benzimidazole, Benzoxazole and Benzothiazole Derivatives as 5HT2B Receptor Ligands. Synthesis and Preliminary Pharmacological Evaluation” (Med Chem Res, 2005)
